Experimental data reported in patent US20230251277A1, “METHOD FOR DETERMINING THE LEVEL OF VITAMIN D AND METABOLITES THEREOF” (Roche Diagnostics Operations, Inc., priority 2020, published 2023).
In brackets after ≈: the same amount, converted by molar mass. Entries after “also recorded” stand apart in the source; their conditions may differ.

How the values were obtained:
[1] = Dynamic viscosity of the releasing reagent solution; format: physicochemical
physchem = conditions: aqueous with cosolvent or surfactant or cyclodextrin
[2] = biological target: T1, Vitamin D binding protein (Homo sapiens, UniProt P02774); test: Screening of releasing reagent candidates: recovery of Vitamin D metabolites from spiked native serum pool (immunobead capture, LC-MS/MS); format: biochemical; design: native serum pool and homogenized; from tissue; host or cells: native serum pool (spiked with vitamin D metabolites); conditions: 45 µl pretreatment reagent at the concentration of the 1st table
T1 sequence (P02774 17-474): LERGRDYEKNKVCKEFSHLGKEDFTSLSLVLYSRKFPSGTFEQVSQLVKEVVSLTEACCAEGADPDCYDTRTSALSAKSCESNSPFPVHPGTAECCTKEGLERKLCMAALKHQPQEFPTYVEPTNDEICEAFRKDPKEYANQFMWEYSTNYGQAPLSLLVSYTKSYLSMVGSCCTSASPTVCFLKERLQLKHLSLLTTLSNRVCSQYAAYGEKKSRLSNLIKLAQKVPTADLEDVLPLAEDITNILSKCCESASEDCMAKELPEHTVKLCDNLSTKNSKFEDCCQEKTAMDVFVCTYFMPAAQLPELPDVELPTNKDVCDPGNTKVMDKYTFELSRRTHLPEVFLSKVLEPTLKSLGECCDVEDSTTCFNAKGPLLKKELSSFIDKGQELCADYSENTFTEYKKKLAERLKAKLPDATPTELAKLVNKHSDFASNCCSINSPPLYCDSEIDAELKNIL
Experimental: 0.30 ml di-OH Vitamin D stock solution ([…] 24R,25-di-OH Vitamin D3 and […] 24R,25-di-OH Vitamin D2 in methanol) and 0.55 ml mono-OH Vitamin D stock solution (10.00 µg/ml 25-OH Vitamin D3 and 10.00 µg/ml 25-OH Vitamin D2 in methanol) are added to 99.1 5 ml native serum pool and homogenized. Thus resulting concentrations in the spiked pool are: • 3.9 ng/ml 24R,25-di-OH Vitamin D3 • 6.0 ng/ml 24R,25-di-OH Vitamin D2 • 55.0 ng/ml 25-OH Vitamin D2 • 84.9 ng/ml 25-OH Vitamin D3 Endogenous amounts in the original native serum pool are taken into account.
Molar concentrations of the evaluated chemicals are:
10 µl Vitamin D free serum (representing ISTD dummy) are pipetted to 145 µl sample in a plastic vessel. After incubation with periodic shaking for 231 s at 37° C., 45 µl pretreatment reagent are added. Again, an incubation with periodic shaking for 640 s at 37° C. takes place. Therefore Vitamin D should be or is gently released from Vitamin D binding protein. In the next step 50 µl immunobead suspension are pipetted to the mixture. Again, an incubation with periodic shaking for 393 s at 37℃ takes place. After twofold bead wash using 0.01 M PBS and magnetic separation, 60 µl of the elution reagent water/methanol 2/8 (v/v) are added and a 40 s incubation period takes place. It is possible to transfer 40 µl supernatant in a HPLC glass vial while 20 µl have to remain in the vessel to avoid the carry-over of beads into the supernatant. In the final step 40 µl internal standard working solution are added to the supernatant and homogenized by means of sip and spit pipetting technique.
HPLC-MS/MS analysis is performed using a 1290 infinity Multisampler and a 1290 Inifinity LC System (Agilent Technologies, Santa Clara/USA) coupled to a Triple Quad 6500+ MS (Sciex, Darmstadt).
40 µl of each sample are injected on the analytical C18 column (50×2.1 mm, 2.6 µm, Hitachi, Tokio/Japan) in order to separate the analytes. This is realized with a flow rate of 1.0 ml/min and at a column temperature of 50° C. Separation of the analytes is achieved with the following gradient of 50 mM formic acid (A) and methanol (B): • 0.00 min: 80% […] • 0.70 min: 90% B • 0.75 min: 98% B • 1.70 min: 98% B • 1.80 min: 80% B • 2.40 min: 80% B
The coupled MS detector is operating in positive electrospray ionisation (ESI) mode. The Vitamin D analytes are detected using multi reaction monitoring (MRM) technique. Doing this two periods are applied: 0.00-0.60 min for measurement of 24R,25-di-OH Vitamin D2/D3 and 0.60-2.40 min for the detection of 25-OH Vitamin
Calibration is performed by means of LC-MS/MS of Vitamin D standards in solvent (60% MeOH) containing internal standards as concentrated as in the processed samples. For example, calibration levels for 25-OH Vitamin D3 are 2, 5, 10, 25, 50 and 100 ng/ml, while the concentration of 25-OH Vitamin D3 13C5 is set to 30 ng/ml.
Due to the fact that internal standard concentrations are identical both in calibrators and processed samples, it is possible to calculate recoveries for each analyte with the formula: […]
The results are shown in FIGS. 2 to 5 show the recovery of the releasing reagent candidates for 25-OH Vitamin D3 (FIG. 2), 25-OH Vitamin D2 (FIG. 3), 24R25-di-OH Vitamin D3 (FIG. 4) and 24R25-di-OH Vitamin D2 (FIG. 5).
Each error bar in FIGS. 2 and 5 is constructed using the min and the max. of the data.

[3] = biological target: T1, Vitamin D binding protein; test: Pretreatment optimization (design of experiments): 25-OH Vitamin D3 area ratio / analyte recovery in serum, plasma, Vitamin D free serum

SMILES | solubility (physchem) | recovery of Vitamin D metabolites (25-OH D3, 25-OH D2, 24R,25-di-OH D3, 24R,25-di-OH D2) ([2]; FIGS. 2 to 5) | other results
O=C([O-])c1ccccc1O.[Na+] [PT1, Sodium Salicylate, reference compound] | 5600 mM | Highest recoveries | dynamic viscosity ([1]; at 6° C. for 5.6 M solution in 0.01 M PBS/methanol 9/1): 23 mPas; dynamic viscosity ([1]; at 6° C., (pre)treatment containing 5.6 M (PT1)): 23 mPa·s
N.O=C(O)c1ccccc1O [PT2, Ammonium Salicylate] | 5600 mM | Highest recoveries | 
O=C(OCCO)c1ccccc1O [PT3, Ethylen glycol monosalicylate] | 50 mM (≈ 9110 µg/mL) |  | 
O=C(O)c1ccc(O)c(C(=O)O)c1 [PT4, 4-Hydroxyisophthalic acid] | 1 mM (≈ 182 µg/mL) |  | 
O=C(O)c1cccc(O)c1 [PT5, 3-Hydroxybenzoic acid] | 50 mM (≈ 6910 µg/mL) | Highest recoveries | 
Cc1ccc(C(=O)O)c(O)c1 [PT6, 4-Methylsalicylic acid] | 20 mM (≈ 3040 µg/mL) |  | 
O=C(O)c1ccc(O)cc1O [PT7, 2,4-Dihydroxybenzoic acid] | 50 mM (≈ 7710 µg/mL) | Highest recoveries | 
COC(=O)c1ccc(O)cc1.[Na] [PT8, Methylparaben Sodium] |  | Lowest recoveries | 
COc1ccccc1C(=O)O [PT9, 2-Methoxy-benzoic acid] | 30 mM (≈ 4560 µg/mL) |  | 
CC(=O)Oc1ccccc1C(=O)O [PT10, Aspirin, reference compound] | 10 mM (≈ 1800 µg/mL) |  | 
O=C(O)c1cc(/N=N/c2ccc(S(=O)(=O)Nc3ccccn3)cc2)ccc1O [PT11, Sulfasalazine, reference compound] | 9 mM (≈ 3590 µg/mL) |  | 
O=C(O)c1ccccc1O [PT12, Salicylic acid, reference compound] | 30 mM (≈ 4140 µg/mL) |  | 
Cc1ccc(O)c(C(=O)O)c1 [PT13, 2-Hydroxy-5-methylbenzoic acid] | 10 mM (≈ 1520 µg/mL) |  | 
COC(=O)c1ccc(O)cc1 [PT14, Methyl-4-hydroxybenzoate] |  | Lowest recoveries | 
Cc1cccc(C(=O)O)c1O [PT15, 3-Methylsalicylic acid] | 10 mM (≈ 1520 µg/mL) |  | 
COC(=O)c1ccccc1O [PT16, Methyl Salicylate, reference compound] | 10 mM (≈ 1520 µg/mL) |  | 
O=C(Oc1ccccc1)c1ccccc1O [PT17, Phenyl Salicylate] | 0.9 mM (≈ 193 µg/mL) |  | 
O=C(O)c1cc(-c2ccc(F)cc2F)ccc1O [PT18, Diflunisal, reference compound] | 0.4 mM (≈ 100 µg/mL) |  | 
CCOC(=O)c1cc(OCC)ccc1O [PT19, Ethyl-5-ethoxy-2-hydroxybenzoate] | 4 mM (≈ 841 µg/mL) |  | 
O=C([O-])c1cccc(O)c1.[Na+] [PT20, 3-Hydroxybenzoic acid sodium salt] | 2800 mM | Highest recoveries | 
Cc1cccc(C(=O)[O-])c1O.[Na+] [PT21, 3-Methyl Salicylic acid Sodium salt] |  |  | dynamic viscosity ([1]; at 6° C., 2.3 M dissolved in 35/65 MeOH/0.01 M PBS (v/v)): 8.3 mPa·s; recovery of Vitamin D metabolites (25-OH D3, 25-OH D2, 24R,25-di-OH D3, 24R,25-di-OH D2) ([2]; FIGS. 2 to 5, Sodium salt): Highest recoveries; also recorded: highest analyte recovery; recovery of Vitamin D metabolites (25-OH D3, 25-OH D2, 24R,25-di-OH D3, 24R,25-di-OH D2) ([2]; FIGS. 2 to 5, listed as 3-methylsalicylic acid sodium salt, Sodium salt): highest analyte recovery; Vitamin D release in a patient serum sample ([3]; 450 mM formic acid/0.7 M versus 0 mM formic acid/2.3 M): comparable Vitamin D release; analyte recovery compared with 5.6 M Salicylic acid sodium salt (PT1) ([3]; optimized pretreatment: 2.3 M, 35/65 (v/v) methanol/0.01 M PBS, 0% FA, Sodium salt): comparable to the recovery with salicylic acid sodium salt
O=C(O)c1ccc(C(F)(F)F)cc1O [PT22, 2-Hydroxy-4-trifluoromethylbenzoic acid] | 6 mM (≈ 1240 µg/mL) |  | 
